Measured values from PubChem BioAssay (NCI).
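GI50 marks 50% less growth. TGI: concentration producing complete growth inhibition.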

Experiments:
Test in all cases: growth of human tumour cells (NCI), 384-well format
A549 NSCLC = tested on: A549 NSCLC
MALME-3M melanoma = tested on: MALME-3M melanoma
SK-MEL-2 melanoma = tested on: SK-MEL-2 melanoma
HT29 colon = tested on: HT29 colon
LOX IMVI melanoma = tested on: LOX IMVI melanoma
TK-10 renal = tested on: TK-10 renal
SNB-19 CNS = tested on: SNB-19 CNS
HCT-15 colon = tested on: HCT-15 colon
RPMI-8226 leukemia = tested on: RPMI-8226 leukemia
OVCAR-8 ovarian = tested on: OVCAR-8 ovarian
DU-145 prostate = tested on: DU-145 prostate
KM12 colon = tested on: KM12 colon
MDA-MB-468 breast = tested on: MDA-MB-468 breast
MCF7 breast = tested on: MCF7 breast
UACC-257 melanoma = tested on: UACC-257 melanoma
UACC-62 melanoma = tested on: UACC-62 melanoma
NCI-H522 lung = tested on: NCI-H522 lung
MOLT-4 leukemia = tested on: MOLT-4 leukemia
MDA-MB-435 melanoma = tested on: MDA-MB-435 melanoma
PC-3 prostate = tested on: PC-3 prostate
A498 renal = tested on: A498 renal
OVCAR-5 ovarian = tested on: OVCAR-5 ovarian
HS 578T breast = tested on: HS 578T breast
HCT-116 colon = tested on: HCT-116 colon
786-0 renal = tested on: 786-0 renal
CCRF-CEM leukemia = tested on: CCRF-CEM leukemia
SK-MEL-28 melanoma = tested on: SK-MEL-28 melanoma
ACHN renal = tested on: ACHN renal
OVCAR-4 ovarian = tested on: OVCAR-4 ovarian
RXF 393 renal = tested on: RXF 393 renal
NCI/ADR-RES ovarian = tested on: NCI/ADR-RES ovarian
IGROV1 ovarian = tested on: IGROV1 ovarian
UO-31 renal = tested on: UO-31 renal
M14 melanoma = tested on: M14 melanoma
SF-295 CNS = tested on: SF-295 CNS
EKVX NSCLC = tested on: EKVX NSCLC
NCI-H226 lung = tested on: NCI-H226 lung
HOP-92 NSCLC = tested on: HOP-92 NSCLC
NCI-H322M lung = tested on: NCI-H322M lung
U251 glioblastoma = tested on: U251 glioblastoma
SNB-75 CNS = tested on: SNB-75 CNS
HL-60(TB) leukemia = tested on: HL-60(TB) leukemia
BT-549 breast = tested on: BT-549 breast
HOP-62 NSCLC = tested on: HOP-62 NSCLC
SK-OV-3 ovarian = tested on: SK-OV-3 ovarian
CAKI-1 renal = tested on: CAKI-1 renal
SF-268 CNS = tested on: SF-268 CNS
OVCAR-3 ovarian = tested on: OVCAR-3 ovarian
T-47D breast = tested on: T-47D breast
K-562 leukemia = tested on: K-562 leukemia
SW-620 colon = tested on: SW-620 colon
NCI-H23 lung = tested on: NCI-H23 lung
SF-539 CNS = tested on: SF-539 CNS
SN12C renal = tested on: SN12C renal
MDA-MB-231 breast = tested on: MDA-MB-231 breast

SMILES: Cn1c(CCCC(=O)O)nc2cc(N(CCCl)CCCl)ccc21
- GI50 (A549 NSCLC): > 100 µM
- TGI (A549 NSCLC): > 100 µM
- GI50 (MALME-3M melanoma): > 100 µM
- TGI (MALME-3M melanoma): > 100 µM
- GI50 (SK-MEL-2 melanoma): > 100 µM
- TGI (SK-MEL-2 melanoma): > 100 µM
- GI50 (HT29 colon): > 100 µM
- TGI (HT29 colon): > 100 µM
- GI50 (LOX IMVI melanoma): 88.3 µM
- TGI (LOX IMVI melanoma): > 100 µM
- GI50 (TK-10 renal): > 100 µM
- TGI (TK-10 renal): > 100 µM
- GI50 (SNB-19 CNS): > 100 µM
- TGI (SNB-19 CNS): > 100 µM
- GI50 (HCT-15 colon): > 100 µM
- TGI (HCT-15 colon): > 100 µM
- GI50 (RPMI-8226 leukemia): 39.8 µM
- TGI (RPMI-8226 leukemia): > 100 µM
- GI50 (OVCAR-8 ovarian): 69.8 µM
- TGI (OVCAR-8 ovarian): > 100 µM
- GI50 (DU-145 prostate): > 100 µM
- TGI (DU-145 prostate): > 100 µM
- GI50 (KM12 colon): > 100 µM
- TGI (KM12 colon): > 100 µM
- GI50 (MDA-MB-468 breast): 11.9 µM
- TGI (MDA-MB-468 breast): 32.8 µM
- GI50 (MCF7 breast): 71.3 µM
- TGI (MCF7 breast): > 100 µM
- GI50 (UACC-257 melanoma): > 100 µM
- TGI (UACC-257 melanoma): > 100 µM
- GI50 (UACC-62 melanoma): 31.8 µM
- TGI (UACC-62 melanoma): > 100 µM
- GI50 (NCI-H522 lung): 39.3 µM
- TGI (NCI-H522 lung): > 100 µM
- GI50 (MOLT-4 leukemia): 3.2 µM
- TGI (MOLT-4 leukemia): 10.3 µM
- GI50 (MDA-MB-435 melanoma): > 100 µM
- TGI (MDA-MB-435 melanoma): > 100 µM
- GI50 (PC-3 prostate): > 100 µM
- TGI (PC-3 prostate): > 100 µM
- GI50 (A498 renal): > 100 µM
- TGI (A498 renal): > 100 µM
- GI50 (OVCAR-5 ovarian): > 100 µM
- TGI (OVCAR-5 ovarian): > 100 µM
- GI50 (HS 578T breast): > 100 µM
- TGI (HS 578T breast): > 100 µM
- GI50 (HCT-116 colon): 61.3 µM
- TGI (HCT-116 colon): > 100 µM
- GI50 ([…]-0 renal): 90.6 µM
- TGI (786-0 renal): > 100 µM
- GI50 (CCRF-CEM leukemia): 17.9 µM
- TGI (CCRF-CEM leukemia): 32.4 µM
- GI50 (SK-MEL-28 melanoma): > 100 µM
- TGI (SK-MEL-28 melanoma): > 100 µM
- GI50 (ACHN renal): 68.3 µM
- TGI (ACHN renal): > 100 µM
- GI50 (OVCAR-4 ovarian): > 100 µM
- TGI (OVCAR-4 ovarian): > 100 µM
- GI50 (RXF 393 renal): 41.7 µM
- TGI (RXF 393 renal): > 100 µM
- GI50 (NCI/ADR-RES ovarian): > 100 µM
- TGI (NCI/ADR-RES ovarian): > 100 µM
- GI50 (IGROV1 ovarian): > 100 µM
- TGI (IGROV1 ovarian): > 100 µM
- GI50 (UO-31 renal): > 100 µM
- TGI (UO-31 renal): > 100 µM
- GI50 (M14 melanoma): 55.5 µM
- TGI (M14 melanoma): > 100 µM
- GI50 (SF-295 CNS): > 100 µM
- TGI (SF-295 CNS): > 100 µM
- GI50 (EKVX NSCLC): > 100 µM
- TGI (EKVX NSCLC): > 100 µM
- GI50 (NCI-H226 lung): 93.1 µM
- TGI (NCI-H226 lung): > 100 µM
- GI50 (HOP-92 NSCLC): > 100 µM
- TGI (HOP-92 NSCLC): > 100 µM
- GI50 (NCI-H322M lung): > 100 µM
- TGI (NCI-H322M lung): > 100 µM
- GI50 (U251 glioblastoma): 47.1 µM
- TGI (U251 glioblastoma): > 100 µM
- GI50 (SNB-75 CNS): > 100 µM
- TGI (SNB-75 CNS): > 100 µM
- GI50 (HL-60(TB) leukemia): 17.3 µM
- TGI (HL-60(TB) leukemia): 33.2 µM
- GI50 (BT-549 breast): 57 µM
- TGI (BT-549 breast): > 100 µM
- GI50 (HOP-62 NSCLC): 42 µM
- TGI (HOP-62 NSCLC): > 100 µM
- GI50 (SK-OV-3 ovarian): > 100 µM
- TGI (SK-OV-3 ovarian): > 100 µM
- GI50 (CAKI-1 renal): 55.4 µM
- TGI (CAKI-1 renal): > 100 µM
- GI50 (SF-268 CNS): 35.6 µM
- TGI (SF-268 CNS): > 100 µM
- GI50 (OVCAR-3 ovarian): > 100 µM
- TGI (OVCAR-3 ovarian): > 100 µM
- GI50 (T-47D breast): > 100 µM
- TGI (T-47D breast): > 100 µM
- GI50 (K-562 leukemia): > 100 µM
- TGI (K-562 leukemia): > 100 µM
- GI50 (SW-620 colon): 72.7 µM
- TGI (SW-620 colon): > 100 µM
- GI50 (NCI-H23 lung): 60.3 µM
- TGI (NCI-H23 lung): > 100 µM
- GI50 (SF-539 CNS): 50.4 µM
- TGI (SF-539 CNS): > 100 µM
- GI50 (SN12C renal): 34.7 µM
- TGI (SN12C renal): > 100 µM
- GI50 (MDA-MB-231 breast): > 100 µM
- TGI (MDA-MB-231 breast): > 100 µM
